{
  "source": "PubChem BioAssay AID1963437",
  "about": "(Molecular Pharmacology Branch, DTP, NCI, 2024)",
  "test_system": "OVCAR-8 complex spheroid, growth inhibition",
  "assay": "Anticancer human tumor OVCAR-8 cell line growth inhibition [Asc];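 also: spheroids exposed to agents for 7 days before readout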;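 as to viability, T/C: percent viability relative to DMSO vehicle wells taken as 100%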",
  "settings": "for IC50: curve of first compound; for viability, T/C: stronger effect = lower value",
  "procedure,_shortened": "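Tumor cells were grown as complex spheroids with human endothelial cells (HUVEC) and human mesenchymal stem cells as stroma. Agents were tested alone and in combination, in half-log steps down from the clinical Cmax, or from 10 microM where Cmax was unknown.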",
  "data": [
    {"smiles": "C#Cc1c(F)ccc2cc(O)cc(-c3ncc4c(N5CC6CCC(C5)N6)nc(OCC56CCCN5CC(F)C6)nc4c3F)c12", "note": "(configuration not stated) + Cc1c(S(C)(=O)=O)c(-c2cc(F)cc(N3CCN(c4ccc(NS(=O)(=O)c5ccc(NC(CCN6CCC(C(=O)OCCCP(=O)(O)O)CC6)CSc6ccccc6)c(S(=O)(=O)C(F)(F)F)c5)cc4)CC3)c2)c(-c2ccc(Cl)cc2)n1C(C)C", "values": [
      {"measurement": "IC50", "setting": "second compound 0.0316 µM", "result": "> 10", "unit": "µM"},
      {"measurement": "IC50", "setting": "second compound 0.1 µM", "result": "> 10", "unit": "µM"},
      {"measurement": "IC50", "setting": "second compound 0.316 µM", "result": "> 10", "unit": "µM"},
      {"measurement": "IC50", "setting": "second compound 1 µM", "result": "> 10", "unit": "µM"},
      {"measurement": "IC50", "setting": "second compound 3.16 µM", "result": "> 10", "unit": "µM"},
      {"measurement": "IC50", "setting": "second compound 10 µM", "result": "> 10", "unit": "µM"},
      {"measurement": "viability, T/C", "setting": "second compound 0.0316 µM, first compound 0.0316 µM", "result": 86.8, "unit": "%"},
      {"measurement": "viability, T/C", "setting": "second compound 0.0316 µM, first compound 0.1 µM", "result": 97.1, "unit": "%"},
      {"measurement": "viability, T/C", "setting": "second compound 0.0316 µM, first compound 0.316 µM", "result": 87.3, "unit": "%"},
      {"measurement": "viability, T/C", "setting": "second compound 0.0316 µM, first compound 1 µM", "result": 76.6, "unit": "%"},
      {"measurement": "viability, T/C", "setting": "second compound 0.0316 µM, first compound 3.16 µM", "result": 84.9, "unit": "%"},
      {"measurement": "viability, T/C", "setting": "second compound 0.0316 µM, first compound 10 µM", "result": 99.8, "unit": "%"},
      {"measurement": "viability, T/C", "setting": "second compound 0.1 µM, first compound 0.0316 µM", "result": 85.2, "unit": "%"},
      {"measurement": "viability, T/C", "setting": "second compound 0.1 µM, first compound 0.1 µM", "result": 72.8, "unit": "%"},
      {"measurement": "viability, T/C", "setting": "second compound 0.1 µM, first compound 0.316 µM", "result": 90.1, "unit": "%"},
      {"measurement": "viability, T/C", "setting": "second compound 0.1 µM, first compound 1 µM", "result": 85.5, "unit": "%"},
      {"measurement": "viability, T/C", "setting": "second compound 0.1 µM, first compound 3.16 µM", "result": 90.4, "unit": "%"},
      {"measurement": "viability, T/C", "setting": "second compound 0.1 µM, first compound 10 µM", "result": 84.7, "unit": "%"},
      {"measurement": "viability, T/C", "setting": "second compound 0.316 µM, first compound 0.0316 µM", "result": 78.2, "unit": "%"},
      {"measurement": "viability, T/C", "setting": "second compound 0.316 µM, first compound 0.1 µM", "result": 102, "unit": "%"},
      {"measurement": "viability, T/C", "setting": "second compound 0.316 µM, first compound 0.316 µM", "result": 95.4, "unit": "%"},
      {"measurement": "viability, T/C", "setting": "second compound 0.316 µM, first compound 1 µM", "result": 105, "unit": "%"},
      {"measurement": "viability, T/C", "setting": "second compound 0.316 µM, first compound 3.16 µM", "result": 94, "unit": "%"},
      {"measurement": "viability, T/C", "setting": "second compound 0.316 µM, first compound 10 µM", "result": 107, "unit": "%"},
      {"measurement": "viability, T/C", "setting": "second compound 1 µM, first compound 0.0316 µM", "result": 95.1, "unit": "%"},
      {"measurement": "viability, T/C", "setting": "second compound 1 µM, first compound 0.1 µM", "result": 79, "unit": "%"},
      {"measurement": "viability, T/C", "setting": "second compound 1 µM, first compound 0.316 µM", "result": 84.6, "unit": "%"},
      {"measurement": "viability, T/C", "setting": "second compound 1 µM, first compound 1 µM", "result": 111, "unit": "%"},
      {"measurement": "viability, T/C", "setting": "second compound 1 µM, first compound 3.16 µM", "result": 106, "unit": "%"},
      {"measurement": "viability, T/C", "setting": "second compound 1 µM, first compound 10 µM", "result": 116, "unit": "%"},
      {"measurement": "viability, T/C", "setting": "second compound 3.16 µM, first compound 0.0316 µM", "result": 85.1, "unit": "%"},
      {"measurement": "viability, T/C", "setting": "second compound 3.16 µM, first compound 0.1 µM", "result": 83.2, "unit": "%"},
      {"measurement": "viability, T/C", "setting": "second compound 3.16 µM, first compound 0.316 µM", "result": 89.8, "unit": "%"},
      {"measurement": "viability, T/C", "setting": "second compound 3.16 µM, first compound 1 µM", "result": 92.4, "unit": "%"},
      {"measurement": "viability, T/C", "setting": "second compound 3.16 µM, first compound 3.16 µM", "result": 102, "unit": "%"},
      {"measurement": "viability, T/C", "setting": "second compound 3.16 µM, first compound 10 µM", "result": 108, "unit": "%"},
      {"measurement": "viability, T/C", "setting": "second compound 10 µM, first compound 0.0316 µM", "result": 91.5, "unit": "%"},
      {"measurement": "viability, T/C", "setting": "second compound 10 µM, first compound 0.1 µM", "result": 92.2, "unit": "%"},
      {"measurement": "viability, T/C", "setting": "second compound 10 µM, first compound 0.316 µM", "result": 81.1, "unit": "%"},
      {"measurement": "viability, T/C", "setting": "second compound 10 µM, first compound 1 µM", "result": 113, "unit": "%"},
      {"measurement": "viability, T/C", "setting": "second compound 10 µM, first compound 3.16 µM", "result": 94.2, "unit": "%"},
      {"measurement": "viability, T/C", "setting": "second compound 10 µM, first compound 10 µM", "result": 122, "unit": "%"}
    ]}
  ]
}
